{"source": "paper PMC4710668", "about": "“Bioactivation of food genotoxicants 5-hydroxymethylfurfural and furfuryl alcohol by sulfotransferases from human, mouse and rat: a comparative study” (Archives of Toxicology, 2014)", "assay_in_all_cases": "FFA sulfoconjugation assay (N6-MF-A formation with adenosine as scavenger)", "assay_type_in_all_cases": "biochemical", "key": {"rSult1a1": {"target": "T1, rSult1a1 (Rattus norvegicus, UniProt P17988)", "T1 construct": "made in house; host or cells: Salmonella typhimurium TA1538 (cytosolic fraction, enzyme not purified)", "T1 sequence (P17988 whole entry)": "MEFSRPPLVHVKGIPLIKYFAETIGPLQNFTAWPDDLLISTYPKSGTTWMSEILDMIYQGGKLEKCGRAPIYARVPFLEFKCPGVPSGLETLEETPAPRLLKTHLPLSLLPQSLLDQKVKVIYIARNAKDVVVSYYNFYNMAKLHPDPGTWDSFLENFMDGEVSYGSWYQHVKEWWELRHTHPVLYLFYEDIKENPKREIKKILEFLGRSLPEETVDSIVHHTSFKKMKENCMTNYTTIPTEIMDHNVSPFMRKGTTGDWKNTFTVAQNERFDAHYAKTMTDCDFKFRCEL", "details": "1 mM FFA", "method_in_brief": "(§1)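 Enzyme source: cytosolic preparations of TA1538 bacteria expressing single SULT forms. FFA + 10 mM adenosine, 20 min, 37 °C; stopped with cold methanol. Readout: N6-MF-A by UPLC-MS/MS, three MRM transitions, labelled internal standard; SULT-free background subtracted. Quadruplicates.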"}, "hSULT2B1b": {"target": "T2, hSULT2B1b (Homo sapiens, UniProt O00204)", "T2 construct": "made in house; host or cells: Salmonella typhimurium TA1538 (cytosolic fraction, not purified)", "T2 sequence (O00204 1-365)": "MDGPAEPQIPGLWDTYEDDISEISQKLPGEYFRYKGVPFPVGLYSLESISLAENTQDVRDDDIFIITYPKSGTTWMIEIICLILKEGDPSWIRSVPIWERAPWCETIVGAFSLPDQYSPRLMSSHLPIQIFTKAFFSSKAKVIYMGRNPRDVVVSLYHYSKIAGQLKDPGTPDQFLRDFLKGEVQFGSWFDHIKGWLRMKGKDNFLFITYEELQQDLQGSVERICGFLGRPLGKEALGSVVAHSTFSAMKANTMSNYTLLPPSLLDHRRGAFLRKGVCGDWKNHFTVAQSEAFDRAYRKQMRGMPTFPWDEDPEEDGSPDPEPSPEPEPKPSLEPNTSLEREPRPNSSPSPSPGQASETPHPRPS", "method_in_brief": "as §1"}, "hSULT1C1": {"target": "T3, hSULT1C1 (Homo sapiens, UniProt O00338)", "T3 construct": "made in house; host or cells: Salmonella typhimurium TA1538 (cytosolic fraction, not purified)", "T3 sequence (O00338 whole entry)": "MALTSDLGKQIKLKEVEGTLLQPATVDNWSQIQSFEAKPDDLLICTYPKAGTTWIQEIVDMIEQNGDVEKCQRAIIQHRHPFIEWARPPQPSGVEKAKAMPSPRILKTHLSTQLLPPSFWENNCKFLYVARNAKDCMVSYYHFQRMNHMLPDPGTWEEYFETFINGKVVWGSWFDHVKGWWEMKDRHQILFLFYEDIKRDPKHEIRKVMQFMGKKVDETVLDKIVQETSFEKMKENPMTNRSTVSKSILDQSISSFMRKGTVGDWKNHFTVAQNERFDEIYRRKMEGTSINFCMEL", "method_in_brief": "as §1"}, "mSult1d1": {"target": "T4, mSult1d1 (Mus musculus, UniProt Q3UZZ6)", "T4 construct": "made in house; host or cells: Salmonella typhimurium TA1538 (cytosolic fraction, enzyme not purified)", "T4 sequence (Q3UZZ6 whole entry)": "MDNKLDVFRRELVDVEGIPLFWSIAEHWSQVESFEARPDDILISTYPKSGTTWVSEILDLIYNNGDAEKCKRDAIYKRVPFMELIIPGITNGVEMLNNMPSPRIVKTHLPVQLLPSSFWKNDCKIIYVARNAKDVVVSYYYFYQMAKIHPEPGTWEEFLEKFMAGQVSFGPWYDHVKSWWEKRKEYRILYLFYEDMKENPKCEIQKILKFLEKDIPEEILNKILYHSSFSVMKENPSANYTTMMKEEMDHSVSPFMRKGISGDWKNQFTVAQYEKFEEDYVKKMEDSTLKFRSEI", "method_in_brief": "as §1"}, "hSULT1A3": {"target": "T5, hSULT1A3 (Homo sapiens, UniProt P0DMM9)", "T5 construct": "made in house; host or cells: Salmonella typhimurium TA1538 (cytosolic fraction, not purified)", "T5 sequence (P0DMM9 whole entry)": "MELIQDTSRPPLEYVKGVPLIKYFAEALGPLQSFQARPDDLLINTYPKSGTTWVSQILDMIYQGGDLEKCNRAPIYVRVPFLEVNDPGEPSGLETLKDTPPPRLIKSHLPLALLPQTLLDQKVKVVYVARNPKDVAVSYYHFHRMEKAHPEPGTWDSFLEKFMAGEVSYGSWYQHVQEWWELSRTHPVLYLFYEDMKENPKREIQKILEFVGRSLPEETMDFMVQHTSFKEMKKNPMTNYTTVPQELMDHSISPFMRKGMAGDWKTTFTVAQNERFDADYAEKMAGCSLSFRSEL", "method_in_brief": "as §1"}, "rSult1c2": {"target": "T6, rSult1c2 (Rattus norvegicus, UniProt Q9WUW8)", "T6 construct": "made in house; host or cells: Salmonella typhimurium TA1538 (cytosolic fraction, enzyme not purified)", "T6 sequence (Q9WUW8 whole entry)": "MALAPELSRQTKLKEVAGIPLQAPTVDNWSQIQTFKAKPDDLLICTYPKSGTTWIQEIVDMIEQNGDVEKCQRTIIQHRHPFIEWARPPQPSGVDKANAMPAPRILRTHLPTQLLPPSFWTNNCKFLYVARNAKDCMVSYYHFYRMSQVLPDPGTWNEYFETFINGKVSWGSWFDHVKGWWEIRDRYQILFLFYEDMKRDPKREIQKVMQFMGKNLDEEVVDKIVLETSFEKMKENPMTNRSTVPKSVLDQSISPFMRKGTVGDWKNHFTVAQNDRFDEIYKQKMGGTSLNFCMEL", "method_in_brief": "as §1"}, "hSULT1C3": {"target": "T7, hSULT1C3 (Homo sapiens, UniProt Q6IMI6)", "T7 construct": "made in house; host or cells: Salmonella typhimurium TA1538 (cytosolic fraction, not purified)", "T7 sequence (Q6IMI6 whole entry)": "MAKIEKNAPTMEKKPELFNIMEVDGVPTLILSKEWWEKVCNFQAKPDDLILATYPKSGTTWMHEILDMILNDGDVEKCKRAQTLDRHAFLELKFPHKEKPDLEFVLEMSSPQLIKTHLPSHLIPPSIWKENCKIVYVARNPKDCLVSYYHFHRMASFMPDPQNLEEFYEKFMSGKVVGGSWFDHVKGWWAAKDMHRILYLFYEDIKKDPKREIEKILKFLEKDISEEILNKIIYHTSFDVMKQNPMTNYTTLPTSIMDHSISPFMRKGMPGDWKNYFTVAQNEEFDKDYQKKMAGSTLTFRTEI", "method_in_brief": "as §1"}, "[1]": {"details": "1 mM FFA, corrected by actual SULT concentration in the cytosolic preparation"}}, "note": "Several values for one entry are separate records, joined by “and”; a condition that tells them apart may be missing. Equal values may be shown once. Marks after values point to notes of the source that are not given here.", "data": [{"smiles": "OCc1ccco1", "note": "[FFA, furfuryl alcohol]", "values": [{"measurement": "Rate of N6-MF-A formation", "setting": "rSult1a1", "result": "31.8 ± 0.8", "unit": "fmol N ^6-MF-A/mg/min"}, {"measurement": "Rate of N6-MF-A formation (corr.)", "setting": "rSult1a1; corrected by actual SULT concentration in the cytosolic preparation", "result": "24,400 fmol N ^6-MF-A/mg/min and 24,400 ± 600 fmol N ^6-MF-A/mg/min"}, {"measurement": "ratio of N6-MF-A formation, rSult1a1 vs rSult1b1", "setting": "rSult1a1; corrected rates", "result": "~71", "unit": "fold"}, {"measurement": "ratio of N6-MF-A formation, rSult1a1 vs rSult1c1", "setting": "rSult1a1; corrected rates", "result": "about 6 fold"}, {"measurement": "Rate of N6-MF-A formation", "setting": "hSULT2B1b; 0.1 mM FFA", "result": "<18", "unit": "fmol N ^6-MF-A/mg/min"}, {"measurement": "Rate of N6-MF-A formation", "setting": "hSULT2B1b; 1 mM FFA", "result": "<20", "unit": "fmol N ^6-MF-A/mg/min"}, {"measurement": "Rate of N6-MF-A formation", "setting": "hSULT2B1b; 10 mM FFA", "result": "<44", "unit": "fmol N ^6-MF-A/mg/min"}, {"measurement": "Rate of N6-MF-A formation", "setting": "hSULT1C1; 0.1 mM FFA", "result": "<18", "unit": "fmol N ^6-MF-A/mg/min"}, {"measurement": "Rate of N6-MF-A formation", "setting": "hSULT1C1; 1 mM FFA", "result": "<20", "unit": "fmol N ^6-MF-A/mg/min"}, {"measurement": "Rate of N6-MF-A formation", "setting": "hSULT1C1; 10 mM FFA", "result": "<44", "unit": "fmol N ^6-MF-A/mg/min"}, {"measurement": "Rate of N6-MF-A formation", "setting": "mSult1d1; 0.1 mM FFA", "result": "52.5 ± 1.7", "unit": "fmol N ^6-MF-A/mg/min"}, {"measurement": "Rate of N6-MF-A formation", "setting": "mSult1d1; 1 mM FFA", "result": "468 ± 6", "unit": "fmol N ^6-MF-A/mg/min"}, {"measurement": "Rate of N6-MF-A formation (corr.)", "setting": "mSult1d1; [1]", "result": "4,260 ± 60 fmol N ^6-MF-A/mg/min"}, {"measurement": "Rate of N6-MF-A formation", "setting": "mSult1d1; 10 mM FFA", "result": "2,610 ± 30 fmol N ^6-MF-A/mg/min"}, {"measurement": "Rate of N6-MF-A formation", "setting": "hSULT1A3; 1 mM FFA", "result": "27.3 ± 0.5", "unit": "fmol N ^6-MF-A/mg/min"}, {"measurement": "Rate of N6-MF-A formation (corr.)", "setting": "hSULT1A3; [1]", "result": "1,950 ± 30 fmol N ^6-MF-A/mg/min"}, {"measurement": "Rate of N6-MF-A formation", "setting": "hSULT1A3; 10 mM FFA", "result": "226 ± 3", "unit": "fmol N ^6-MF-A/mg/min"}, {"measurement": "Rate of N6-MF-A formation", "setting": "rSult1c2; 0.1 mM FFA", "result": "<18", "unit": "fmol N ^6-MF-A/mg/min"}, {"measurement": "Rate of N6-MF-A formation", "setting": "rSult1c2; 1 mM FFA", "result": "<20", "unit": "fmol N ^6-MF-A/mg/min"}, {"measurement": "Rate of N6-MF-A formation", "setting": "rSult1c2; 10 mM FFA", "result": "<44", "unit": "fmol N ^6-MF-A/mg/min"}, {"measurement": "Rate of N6-MF-A formation", "setting": "hSULT1C3; 0.1 mM FFA", "result": "<18", "unit": "fmol N ^6-MF-A/mg/min"}, {"measurement": "Rate of N6-MF-A formation", "setting": "hSULT1C3; 1 mM FFA", "result": "61.8 ± 0.3", "unit": "fmol N ^6-MF-A/mg/min"}, {"measurement": "Rate of N6-MF-A formation (corr.)", "setting": "hSULT1C3; 1 mM FFA, corrected by SULT concentration reported in Meinl et al. [2006]", "result": "3,090 ± 10^b fmol N ^6-MF-A/mg/min"}, {"measurement": "Rate of N6-MF-A formation", "setting": "hSULT1C3; 10 mM FFA", "result": "248 ± 3", "unit": "fmol N ^6-MF-A/mg/min"}]}]}
